Source: ChEMBL document CHEMBL5465560, “Selectivity Literature for EUbOPEN Chemogenomic Library” (2024)

Experiments:
[1] = biological target: Serine/threonine-protein kinase 26 (Homo sapiens, UniProt Q9P289); experiment: Selectivity interaction (ActivX KiNativ screen (kinase selectivity in THP-1 cell lysates)) EUB0000639a STK26; assay type: subcellular; conditions: lysate, at 5 µM
[2] = biological target: T1, MAP/microtubule affinity-regulating kinase 4 (Homo sapiens) (UniProt Q96L34); experiment: Selectivity interaction (Kinase panel (Carna Biosciences)) EUB0001542aTs MARK4; conditions: at 1 µM
T1 sequence (whole entry): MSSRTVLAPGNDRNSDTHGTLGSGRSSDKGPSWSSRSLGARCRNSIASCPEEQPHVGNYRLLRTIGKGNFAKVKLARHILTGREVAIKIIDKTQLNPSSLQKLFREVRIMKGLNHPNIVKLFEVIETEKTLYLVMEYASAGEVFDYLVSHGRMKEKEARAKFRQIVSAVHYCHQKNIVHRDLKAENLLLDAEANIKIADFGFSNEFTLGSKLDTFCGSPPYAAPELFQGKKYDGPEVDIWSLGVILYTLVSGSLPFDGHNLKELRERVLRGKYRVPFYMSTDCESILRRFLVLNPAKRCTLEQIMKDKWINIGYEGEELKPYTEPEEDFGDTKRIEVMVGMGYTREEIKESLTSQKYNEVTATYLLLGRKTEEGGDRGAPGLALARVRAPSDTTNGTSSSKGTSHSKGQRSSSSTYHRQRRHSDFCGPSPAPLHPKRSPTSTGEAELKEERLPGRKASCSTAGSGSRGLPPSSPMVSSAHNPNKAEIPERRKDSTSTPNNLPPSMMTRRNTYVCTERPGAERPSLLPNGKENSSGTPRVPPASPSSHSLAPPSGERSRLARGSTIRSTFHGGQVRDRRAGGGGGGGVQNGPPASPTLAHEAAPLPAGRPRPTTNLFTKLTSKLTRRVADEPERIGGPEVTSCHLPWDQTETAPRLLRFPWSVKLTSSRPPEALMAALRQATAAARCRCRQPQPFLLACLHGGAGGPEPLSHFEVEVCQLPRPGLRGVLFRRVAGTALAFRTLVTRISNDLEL

[3] = biological target: Angiopoietin-1 receptor (Homo sapiens) (UniProt Q02763); experiment: Selectivity interaction (KinomeScan (DiscoverX)) EUB0000695a TEK; conditions: at 100 nM
[4] = biological target: T2, Tyrosine-protein kinase JAK3 (Homo sapiens) (UniProt P52333); experiment: Selectivity interaction (KinomeScan (DiscoverX)) EUB0000595a JAK3; conditions: at 10 µM
T2 sequence (whole entry): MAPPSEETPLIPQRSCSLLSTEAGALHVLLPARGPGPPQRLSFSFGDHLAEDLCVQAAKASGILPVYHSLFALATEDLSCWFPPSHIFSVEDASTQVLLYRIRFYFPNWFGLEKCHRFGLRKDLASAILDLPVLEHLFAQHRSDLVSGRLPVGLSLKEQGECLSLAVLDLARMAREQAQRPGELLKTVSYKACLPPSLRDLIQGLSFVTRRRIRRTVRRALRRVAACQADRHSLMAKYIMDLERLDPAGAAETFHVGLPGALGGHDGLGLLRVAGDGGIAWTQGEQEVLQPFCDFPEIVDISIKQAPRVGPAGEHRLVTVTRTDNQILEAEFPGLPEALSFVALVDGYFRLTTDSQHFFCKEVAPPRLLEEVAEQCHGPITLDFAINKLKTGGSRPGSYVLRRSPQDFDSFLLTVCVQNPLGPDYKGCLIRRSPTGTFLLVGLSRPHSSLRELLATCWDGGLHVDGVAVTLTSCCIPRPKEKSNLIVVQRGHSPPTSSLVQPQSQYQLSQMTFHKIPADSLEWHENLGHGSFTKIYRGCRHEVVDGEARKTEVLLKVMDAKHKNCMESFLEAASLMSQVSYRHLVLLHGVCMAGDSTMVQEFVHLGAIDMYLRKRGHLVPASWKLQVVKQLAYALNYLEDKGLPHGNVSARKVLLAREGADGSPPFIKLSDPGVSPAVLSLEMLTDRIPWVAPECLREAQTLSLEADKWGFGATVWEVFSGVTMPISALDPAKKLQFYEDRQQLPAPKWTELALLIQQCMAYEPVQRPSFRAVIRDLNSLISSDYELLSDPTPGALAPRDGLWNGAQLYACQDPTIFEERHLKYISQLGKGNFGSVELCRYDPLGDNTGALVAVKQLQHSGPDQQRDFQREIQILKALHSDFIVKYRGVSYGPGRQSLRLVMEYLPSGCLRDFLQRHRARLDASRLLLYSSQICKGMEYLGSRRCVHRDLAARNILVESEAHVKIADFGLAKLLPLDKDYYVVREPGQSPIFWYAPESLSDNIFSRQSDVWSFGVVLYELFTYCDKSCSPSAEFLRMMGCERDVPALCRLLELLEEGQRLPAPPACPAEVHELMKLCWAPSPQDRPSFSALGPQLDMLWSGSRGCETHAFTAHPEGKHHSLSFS

[5] = biological target: T3, Tyrosine-protein kinase ZAP-70 (Homo sapiens) (UniProt P43403); experiment: Selectivity interaction (KinomeScan (DiscoverX)) EUB0000655a ZAP70; conditions: at 10 µM
T3 sequence (whole entry): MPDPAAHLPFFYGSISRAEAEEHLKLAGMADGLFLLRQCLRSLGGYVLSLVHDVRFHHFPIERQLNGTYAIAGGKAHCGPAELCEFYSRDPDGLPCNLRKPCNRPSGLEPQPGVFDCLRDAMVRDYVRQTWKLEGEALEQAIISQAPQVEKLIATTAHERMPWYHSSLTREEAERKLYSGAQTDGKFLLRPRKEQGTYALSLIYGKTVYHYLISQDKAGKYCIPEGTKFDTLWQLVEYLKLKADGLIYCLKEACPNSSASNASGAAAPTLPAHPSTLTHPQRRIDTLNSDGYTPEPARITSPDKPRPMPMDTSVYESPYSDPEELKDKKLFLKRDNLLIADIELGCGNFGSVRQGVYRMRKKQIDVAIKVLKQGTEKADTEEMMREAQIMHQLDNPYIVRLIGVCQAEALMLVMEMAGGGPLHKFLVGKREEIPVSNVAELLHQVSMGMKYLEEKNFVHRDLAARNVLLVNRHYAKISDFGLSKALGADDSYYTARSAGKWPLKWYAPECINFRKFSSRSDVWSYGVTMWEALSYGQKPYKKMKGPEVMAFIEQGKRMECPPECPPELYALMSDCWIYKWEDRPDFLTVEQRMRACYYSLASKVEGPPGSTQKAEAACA

Chain of Serine/threonine-protein kinase 26 (Q9P289 2-416 limits assumed): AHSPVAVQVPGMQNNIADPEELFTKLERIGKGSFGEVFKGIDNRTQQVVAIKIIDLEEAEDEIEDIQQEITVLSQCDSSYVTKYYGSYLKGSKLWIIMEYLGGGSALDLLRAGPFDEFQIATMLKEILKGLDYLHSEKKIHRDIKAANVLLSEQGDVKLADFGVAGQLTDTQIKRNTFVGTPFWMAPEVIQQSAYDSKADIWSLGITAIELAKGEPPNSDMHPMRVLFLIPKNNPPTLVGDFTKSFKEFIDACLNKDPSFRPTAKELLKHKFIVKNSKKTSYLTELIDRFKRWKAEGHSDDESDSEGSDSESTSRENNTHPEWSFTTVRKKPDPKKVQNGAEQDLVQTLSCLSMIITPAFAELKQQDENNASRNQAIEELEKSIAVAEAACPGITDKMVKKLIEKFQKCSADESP
Chain of Angiopoietin-1 receptor (Homo sapiens) (Q02763 whole entry): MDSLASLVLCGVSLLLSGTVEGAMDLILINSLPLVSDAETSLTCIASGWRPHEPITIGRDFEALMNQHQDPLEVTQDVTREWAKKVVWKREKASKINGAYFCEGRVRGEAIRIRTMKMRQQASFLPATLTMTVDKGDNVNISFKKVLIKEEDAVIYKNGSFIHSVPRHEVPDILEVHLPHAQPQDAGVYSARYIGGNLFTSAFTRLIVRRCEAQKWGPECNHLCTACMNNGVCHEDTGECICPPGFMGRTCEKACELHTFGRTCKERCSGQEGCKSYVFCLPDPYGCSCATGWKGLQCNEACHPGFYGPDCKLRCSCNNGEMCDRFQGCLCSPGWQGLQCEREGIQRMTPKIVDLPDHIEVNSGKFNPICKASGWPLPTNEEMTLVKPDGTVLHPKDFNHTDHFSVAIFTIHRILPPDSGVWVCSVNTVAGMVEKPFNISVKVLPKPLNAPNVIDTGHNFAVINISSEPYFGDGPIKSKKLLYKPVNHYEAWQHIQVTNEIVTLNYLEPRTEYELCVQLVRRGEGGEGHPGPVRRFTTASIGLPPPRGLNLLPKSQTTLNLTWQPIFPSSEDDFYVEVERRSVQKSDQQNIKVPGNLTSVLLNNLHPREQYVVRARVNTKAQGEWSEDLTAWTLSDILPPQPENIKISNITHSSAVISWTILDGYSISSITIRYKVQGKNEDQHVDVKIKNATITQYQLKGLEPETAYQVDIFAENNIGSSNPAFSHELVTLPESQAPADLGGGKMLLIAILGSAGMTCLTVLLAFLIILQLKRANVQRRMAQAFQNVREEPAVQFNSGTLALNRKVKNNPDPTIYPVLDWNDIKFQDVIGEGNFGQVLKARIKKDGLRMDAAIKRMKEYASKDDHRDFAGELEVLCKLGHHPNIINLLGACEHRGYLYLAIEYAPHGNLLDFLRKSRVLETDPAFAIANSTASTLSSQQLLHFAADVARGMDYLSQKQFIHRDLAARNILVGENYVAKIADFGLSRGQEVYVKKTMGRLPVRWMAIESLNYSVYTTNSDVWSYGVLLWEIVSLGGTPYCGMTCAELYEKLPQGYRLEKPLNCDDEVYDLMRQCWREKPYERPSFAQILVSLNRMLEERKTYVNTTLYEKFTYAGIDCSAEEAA

CC[C@@H]1[C@H](F)C(=O)N[C@@H]1COc1nccc2cc(C(N)=O)c(OC)cc12 [ZIMLOVISERTIB] gave a % of inhibition [1] of 21.8%.

Cn1cc(Nc2nccc(N3CC4CCC(C3)N4C(=O)[C@@H]3CC3(F)F)n2)cn1 showed a % of inhibition [2] of 59%.

In the case of Cc1cc(F)c(C(=O)Nc2cccc(-c3nncn3C(C)C)n2)cc1-n1cnc(C2CC2)c1, the % of control [3] is reported as 100%.

In the case of COCC(=O)NC/C=C/c1ccc2ncnc(Nc3ccc(Oc4ccc(C)nc4)c(C)c3)c2c1 [CP-724714], the % of control [4] is reported as 100%.

Work on CN(C)CCOc1ccc(-c2nc(-c3ccncc3)c(-c3ccc4c(c3)CC/C4=N\O)[nH]2)cc1 yielded a % of control [5] of 100%.
